# Measurements published in US11957783B2, “Topical immunosensitizers to treat viral and fungal infections” (Squarex, LLC, priority 2018, dated 2024).
# Marks after values point to notes of the source that are not given here.
# Tested on: peripheral blood mononuclear cells (PBMC)
# Experiment: Cytokine and immune-function gene expression of PBMC in vitro (qRT-PCR, 41 immune-related genes)
# Format: cell-based, human
# Method: After a screening visit at which blood was drawn to test for IgG antibody against HSV-1 and subjects were interviewed for inclusion/exclusion criteria, selected subjects returned for blood draws on day 1. After the blood draw on day 1, subjects in group A only were dosed with SADBE. A petrolatum donut was applied with a cotton swab to form about a 1 cm diameter donut on skin on the inner aspect of the upper arm. Then a separate cotton swab was dipped in a 2% SADBE solution (w/v) in DMSO, and the swab was then used to apply about 10-20 mg of solution over about a 1 cm diameter circle within the petrolatum donut. Immediately after application, the application site was covered with TEGADERM. Subjects were advised to remove the TEGADERM and rinse and wipe the spot three hours later. The group A subjects then returned for blood draws on days 15 and 57 and were queried about adverse events on those dates.
# PBMC were isolated using SepMate PBMC isolation tubes (Stem Cell Technologies, Vancouver, Canada) and Ficoll-Paque according to the manufacturer's instructions. PBMC were isolated and suspended in negative control medium at 2 million cells/ml. PBMC suspension (100 μL) was added to 100 μL of medium in quadruplicate in 96-well plates. The plates were prepared in advance and stored at −70° C. The wells were in five different conditions in quadruplicate with these final concentrations after addition of the 100 μL of PBMC suspension in negative control medium. • 1. Negative control in medium (RPMI with glutamine and pen/strep, supplemented with 10% human A/B serum). • 2. Medium plus 16 μg/ml protein from heat-inactivated HSV-1-infected Vero cell extracts. • 3. Medium plus heat-inactivated HSV-1 cell-free virus at a final 7.5 million pfu/ml. • 4. Medium plus Candida cell extract. (Greer item number M15A50, 20,000 pnu/ml allergenic extract mixed molds Candida albicans, was diluted 1/50 into medium). • 5. Positive control, medium plus 10 μg/ml concanavalin A.
# Two plates were created for each subject at each collection point. One plate was incubated for 2 days at 37° C. in a humidified 5% CO2 atmosphere and then RNA was isolated from the pooled contents of the 4 wells of a given condition for a specific patient, and the RNA was stored at −70° C. and subsequently used for quantitative real time PCR analysis of gene expression of 41 immune-related genes.
# As noted above, after 2 days of growth of the PBMC in a 37° C. humidified 5% CO2 incubator in a 96-well plate, four wells of a single condition (negative control, positive control, heat-inactivated HSV-1, HSV-1-infected cell extracts, or Candida extract) with cells from a single subject (200 μL in each well) were pooled, and the RNA was immediately isolated with Trizol reagent and chloroform by Qiagen RNeasy MiniElute clean up kit Qiagen cat #74204, according to manufacturer's instructions into a final volume of 13 μL, and then flash frozen on powdered dry ice, and stored at −70° C. in aliquots of 3 μL for RNA quantification and 10 μL for PCR analysis.
# RNA was preamplified with the Qiagen RT2 PreAMP cDNA synthesis kit (Ref. 330451) and custom RT2 PreAmp primer mix (Ref. 330141) starting with about 50 ng RNA according to the procedure of RT preamp cDNA synthesis handbook date March 2011, pages 17-20. The amplification reactions (final 120 μL) were frozen at −70° C. and used for qPCR analysis the next day.
# qPCR was done with the Qiagen RT PCR profiler gene analysis kit (catalog number 330451) using RT2 Sybr Green Rox qPCR Mastermix (24) (Part 330523) and Custom RT2 PCR array plates (Ref. 330171). For this 675 μL 2×RT2 SYBR green mastermix, 51 μL pre-AMP synthesis reaction, and 623 μL RNase free water were mixed, and then 25 μL of the mixture was added to 48 wells on the left or right half of the custom PCR plate. The PCR instrument was Applied Biosystems 7900HT fast real time PCR. […]
# [1] = PBMC + Candida extract, group A day 57 vs day 1 (pre-dose), one topical 2% SADBE dose
# [2] = PBMC + HSV-1-infected cell extracts (CE), group A day 57 vs day 1 (pre-dose), one topical 2% SADBE dose
# [3] = PBMC + heat-killed HSV-1 virus, group A day 57 vs day 1 (pre-dose), one topical 2% SADBE dose
compound,measurement,setting,value
"CCCCOc1c(OCCCC)c(=O)c1=O [SADBE, 3,4-Dibutoxy-3-cyclobutene-1,2-dione]",ratio of absolute expression in A57 vs. A1: FOXP3,[1],2.01
same,ratio of absolute expression in A57 vs. A1: GATA3,[1],0.28
same,ratio of absolute expression in A57 vs. A1: ICAM1,[1],1.27
same,ratio of absolute expression in A57 vs. A1: IFNA1,[1],2.13
same,ratio of absolute expression in A57 vs. A1: IFNB1,[1],0.93
same,ratio of absolute expression in A57 vs. A1: IFNG,[1],8.54
same,ratio of absolute expression in A57 vs. A1: IL1B,[1],1.73
same,ratio of absolute expression in A57 vs. A1: IL1R1,[1],0.9
same,ratio of absolute expression in A57 vs. A1: IL1RN,[1],1.91
same,ratio of absolute expression in A57 vs. A1: IL2,[1],6.31
same,ratio of absolute expression in A57 vs. A1: IL4,[1],1.52
same,ratio of absolute expression in A57 vs. A1: IL5,[1],1.1
same,ratio of absolute expression in A57 vs. A1: IL8,[1],1.89
same,ratio of absolute expression in A57 vs. A1: IL10,[1],1.12
same,ratio of absolute expression in A57 vs. A1: IL12A,[1],1.64
same,ratio of absolute expression in A57 vs. A1: IL12B,[1],3.61
same,ratio of absolute expression in A57 vs. A1: IL13,[1],4.28
same,ratio of absolute expression in A57 vs. A1: IL15,[1],2.18
same,ratio of absolute expression in A57 vs. A1: IL16,[1],0.81
same,ratio of absolute expression in A57 vs. A1: JAK2,[1],1.68
same,ratio of absolute expression in A57 vs. A1: LTA,[1],1.94
same,ratio of absolute expression in A57 vs. A1: LYZ,[1],0.93
same,ratio of absolute expression in A57 vs. A1: MX1,[1],1.34
same,ratio of absolute expression in A57 vs. A1: NOD1,[1],1.18
same,ratio of absolute expression in A57 vs. A1: SPP1,[1],7.34
same,ratio of absolute expression in A57 vs. A1: STAT1,[1],3.36
same,ratio of absolute expression in A57 vs. A1: STAT4,[1],1.76
same,ratio of absolute expression in A57 vs. A1: TNF,[1],1.22
same,ratio of absolute expression in A57 vs. A1: TNFSF10,[1],1.52
same,ratio of absolute expression in A57 vs. A1: TNFSF13B,[1],1.62
same,ratio of absolute expression in A57 vs. A1: CCL2,[2],1.21
same,ratio of absolute expression in A57 vs. A1: CCL3,[2],4.6
same,ratio of absolute expression in A57 vs. A1: CCL7,[2],0.75
same,ratio of absolute expression in A57 vs. A1: CCR5,[2],0.93
same,ratio of absolute expression in A57 vs. A1: CD80,[2],0.93
same,ratio of absolute expression in A57 vs. A1: CXCL2,[2],2.79
same,ratio of absolute expression in A57 vs. A1: CXCL5,[2],6.03
same,ratio of absolute expression in A57 vs. A1: CXCL9,[2],0.91
same,ratio of absolute expression in A57 vs. A1: CXCL10,[2],0.49
same,ratio of absolute expression in A57 vs. A1: CXCL11,[2],0.31
same,ratio of absolute expression in A57 vs. A1: DDX58,[2],0.94
same,ratio of absolute expression in A57 vs. A1: FOXP3,[2],1.11
same,ratio of absolute expression in A57 vs. A1: GATA3,[2],2.6
same,ratio of absolute expression in A57 vs. A1: ICAM1,[2],0.77
same,ratio of absolute expression in A57 vs. A1: IFNA1,[2],1.29
same,ratio of absolute expression in A57 vs. A1: IFNB1,[2],0.65
same,ratio of absolute expression in A57 vs. A1: IFNG,[2],5.72
same,ratio of absolute expression in A57 vs. A1: IL1B,[2],21.45
same,ratio of absolute expression in A57 vs. A1: IL1R1,[2],1.11
same,ratio of absolute expression in A57 vs. A1: IL1RN,[2],0.79
same,ratio of absolute expression in A57 vs. A1: IL2,[2],2.48
same,ratio of absolute expression in A57 vs. A1: IL4,[2],0.89
same,ratio of absolute expression in A57 vs. A1: IL5,[2],0.5
same,ratio of absolute expression in A57 vs. A1: IL8,[2],3.86
same,ratio of absolute expression in A57 vs. A1: IL10,[2],3.29
same,ratio of absolute expression in A57 vs. A1: IL12A,[2],0.89
same,ratio of absolute expression in A57 vs. A1: IL12B,[2],0.23
same,ratio of absolute expression in A57 vs. A1: IL13,[2],2.28
same,ratio of absolute expression in A57 vs. A1: IL15,[2],0.87
same,ratio of absolute expression in A57 vs. A1: IL16,[2],1.02
same,ratio of absolute expression in A57 vs. A1: JAK2,[2],0.82
same,ratio of absolute expression in A57 vs. A1: LTA,[2],0.99
same,ratio of absolute expression in A57 vs. A1: LYZ,[2],0.29
same,ratio of absolute expression in A57 vs. A1: MX1,[2],0.66
same,ratio of absolute expression in A57 vs. A1: NOD1,[2],0.89
same,ratio of absolute expression in A57 vs. A1: SPP1,[2],5.38
same,ratio of absolute expression in A57 vs. A1: STAT1,[2],0.91
same,ratio of absolute expression in A57 vs. A1: STAT4,[2],1.01
same,ratio of absolute expression in A57 vs. A1: TNF,[2],1.2
same,ratio of absolute expression in A57 vs. A1: TNFSF10,[2],0.88
same,ratio of absolute expression in A57 vs. A1: TNFSF1313,[2],1.07
same,ratio of absolute expression in A57 vs. A1: CCL2,[3],1.71
same,ratio of absolute expression in A57 vs. A1: CCL3,[3],3.73
same,ratio of absolute expression in A57 vs. A1: CCL7,[3],1.81
same,ratio of absolute expression in A57 vs. A1: CCR5,[3],1.35
same,ratio of absolute expression in A57 vs. A1: CD80,[3],1.25
same,ratio of absolute expression in A57 vs. A1: CXCL2,[3],1.58
same,ratio of absolute expression in A57 vs. A1: CXCL5,[3],2.52
same,ratio of absolute expression in A57 vs. A1: CXCL9,[3],2.5
same,ratio of absolute expression in A57 vs. A1: CXCL10,[3],1
same,ratio of absolute expression in A57 vs. A1: CXCL11,[3],0.4
same,ratio of absolute expression in A57 vs. A1: DDX58,[3],0.95
same,ratio of absolute expression in A57 vs. A1: FOXP3,[3],2.46
same,ratio of absolute expression in A57 vs. A1: GATA3,[3],0.32
same,ratio of absolute expression in A57 vs. A1: ICAM1,[3],1.07
same,ratio of absolute expression in A57 vs. A1: IFNA1,[3],1.34
same,ratio of absolute expression in A57 vs. A1: IFNB1,[3],0.87
same,ratio of absolute expression in A57 vs. A1: IFNG,[3],11.01
same,ratio of absolute expression in A57 vs. A1: IL1B,[3],5.09
same,ratio of absolute expression in A57 vs. A1: IL1R1,[3],0.97
same,ratio of absolute expression in A57 vs. A1: IL1RN,[3],1.48
same,ratio of absolute expression in A57 vs. A1: IL2,[3],2.11
same,ratio of absolute expression in A57 vs. A1: IL4,[3],1.32
same,ratio of absolute expression in A57 vs. A1: IL5,[3],0.56
same,ratio of absolute expression in A57 vs. A1: IL8,[3],3.3
same,ratio of absolute expression in A57 vs. A1: IL10,[3],2.29
same,ratio of absolute expression in A57 vs. A1: IL12A,[3],1.48
same,ratio of absolute expression in A57 vs. A1: IL12B,[3],2.08
same,ratio of absolute expression in A57 vs. A1: IL13,[3],3.02
same,ratio of absolute expression in A57 vs. A1: IL15,[3],1.54
same,ratio of absolute expression in A57 vs. A1: IL16,[3],0.82
same,ratio of absolute expression in A57 vs. A1: JAK2,[3],1.26
same,ratio of absolute expression in A57 vs. A1: LTA,[3],1.84
same,ratio of absolute expression in A57 vs. A1: LYZ,[3],0.53
same,ratio of absolute expression in A57 vs. A1: MX1,[3],0.66
same,ratio of absolute expression in A57 vs. A1: NOD1,[3],1.14
same,ratio of absolute expression in A57 vs. A1: SPP1,[3],15.29
same,ratio of absolute expression in A57 vs. A1: STAT1,[3],1.41
same,ratio of absolute expression in A57 vs. A1: STAT4,[3],1.69
same,ratio of absolute expression in A57 vs. A1: TNF,[3],1.19
same,ratio of absolute expression in A57 vs. A1: TNFSF10,[3],1.01
same,ratio of absolute expression in A57 vs. A1: TNFSF13B,[3],1.23
same,Ratio of absolute IFNG gene expression in group A vs. Groups B + C pooled,"Virus, group A day 57 after SADBE",3.359*
same,IFNG expression in group A on day 57 than day 1,"all three stimuli, PBMC",at least 8 fold
